What was measured:
[1] = test system: IFIT1 mRNA in the kidney; assay: IFIT1 mRNA expression in the kidney of SLE model mice (Real-Time RT-PCR); type: in vivo, NZB/WF1 mice; settings: Drug A 30 mg/kg twice a day, Drug B 3 mg/kg once a day, oral, 10 weeks; for IFIT1 Relative index: kidney mRNA relative to control group = 1.000; for IFIT1 mRNA expression level (%): kidney, female NZB/WF1 mice, control = 100%, mean ± standard error of 10 to 11 mice
Protocol: (§1) Actions of suppressing the expression of disease-associated genes in the kidney by the administration of 2-benzyl-5-(4-chlorophenyl)-6-[4-(methylthio)phenyl]-2H-pyridazine-3-one (hereinafter referred to as Drug A) and prednisolone (hereinafter referred to as Drug B) in combination and the administration of each drug alone were evaluated by using NZB×NZW (NZB/W)F1 mice widely known as spontaneous SLE models.
(§2) Female NZB/WF1 mice (Japan SLC, Inc.) were used as test animals.
(§3) The bodyweight of 20-week-old NZB/WF1 mice was measured. By using the body weight as an index, the mice were divided into groups through one-parameter-based block randomization so that each group becomes uniform.
(§4) Drug administration was conducted from the day after the grouping to 10 weeks thereafter. To a group for sole administration of Drug A, a dose of 30 mg/kg was orally administered, twice a day, in the morning (9:00 to 11:00) and in the evening (15:30 to 17:30). Further, to a group for sole administration of Drug B, a dose of 3 mg/kg was orally administered, once a day, in the daytime (11:30 to 13:30). On the other hand, to a group for combined administration of Drug A and Drug B, 30 mg/kg of Drug A was orally administered in the morning (9:00 to 11:00) and in the evening (15:30 to 17:30), and 3 mg/kg of Drug B was orally administered in the daytime (11:30 to 13:30).
(§5) 10 weeks after the grouping (at the time of 30 weeks old), the kidney was excised from each individual and horizontally divided into two portions. After that, the kidney was subjected to RNase inactivation treatment that involves immersing the kidney in RNAlater (manufactured by QIAGEN GmbH) at 4° C. for 24 hours. […] The mRNA expression levels of SLE-associated genes (IFN-y (probe No.: Mm00801778_m1), TNF-α (probe No.: Mm00443258_m1), IL-1β (probe No.: Mm00434228_m1), BAFF (probe No.: Mm00446347_m1), IFIT1 (probe No.: Mm00515153_m1), and IP-10 (probe No.: Mm00445235_m1)) were determined by using ABI PRISM (registered trademark) 7900 Sequence Detection System (manufactured by Applied Biosystems, Inc.) and TaqMan (registered trademark) Gene Expression Assays (manufactured by Applied Biosystems, Inc.) by Real-Time RT-PCR method. […]
(§6) Tables 1 to 6 and FIGS. 1 to 6 each show the mRNA expression levels of IFN-γ (Table 1, FIG. 1), TNF-α (Table 2, FIG. 2), IL-1β (Table 3, FIG. 3), BAFF (Table 4, FIG. 4), IFIT1 (Table 5, FIG. 5), and IP-10 (Table 6, FIG. 6) in the kidney in a control group, a group for sole administration of 30 mg/kg of Drug A, a group for sole administration of 3 mg/kg of Drug B, and a group for combined administration of both Drugs. […] The mRNA expression level is expressed as mean±standard error of 10 to 11 mice in each group. […]

[2] = test system: IFN-γ mRNA in the kidney; assay: IFN-γ mRNA expression in the kidney of SLE model mice (Real-Time RT-PCR); type: in vivo, NZB/WF1 mice; settings: Drug A 30 mg/kg twice a day, Drug B 3 mg/kg once a day, oral, 10 weeks; for IFN-γ Relative index: kidney mRNA relative to control group = 1.000; for IFN-γ mRNA expression level (%): kidney, female NZB/WF1 mice, control = 100%, mean ± standard error of 10 to 11 mice
Protocol: as §1, §2, §3, §4, §5, §6

[3] = test system: IP-10 mRNA in the kidney; assay: IP-10 mRNA expression in the kidney of SLE model mice (Real-Time RT-PCR); type: in vivo, NZB/WF1 mice; settings: Drug A 30 mg/kg twice a day, Drug B 3 mg/kg once a day, oral, 10 weeks; for IP-10 Relative index: kidney mRNA relative to control group = 1.000; for IP-10 mRNA expression level (%): kidney, female NZB/WF1 mice, control = 100%, mean ± standard error of 10 to 11 mice
Protocol: as §1, §2, §3, §4, §5, §6

[4] = test system: SLE-associated genes in the kidney; assay: Expression of SLE-associated genes in the kidney of SLE model mice, overall statement; type: in vivo; settings: NZB/WF1 mice, oral, 10 weeks, Drug A 30 mg/kg twice a day, Drug B 3 mg/kg once a day, Dunnett's test vs control
Protocol: as §1, §2, §3, §4
as §5, with “portions.” for “portions. After that, the kidney was subjected to RNase inactivation treatment that involves immersing the kidney in RNAlater (manufactured by QIAGEN GmbH) at 4° C. for 24 hours.”

[5] = test system: BAFF mRNA in the kidney; assay: BAFF mRNA expression in the kidney of SLE model mice (Real-Time RT-PCR); type: in vivo, NZB/WF1 mice; settings: Drug A 30 mg/kg twice a day, Drug B 3 mg/kg once a day, oral, 10 weeks; for BAFF Relative index: kidney mRNA relative to control group = 1.000; for BAFF mRNA expression level (%): kidney, female NZB/WF1 mice, control = 100%, mean ± standard error of 10 to 11 mice
Protocol: as §1, §2, §3, §4, §5, §6

[6] = test system: TNF-α mRNA in the kidney; assay: TNF-α mRNA expression in the kidney of SLE model mice (Real-Time RT-PCR); type: in vivo, NZB/WF1 mice; settings: Drug A 30 mg/kg twice a day, Drug B 3 mg/kg once a day, oral, 10 weeks; for TNF-α Relative index: kidney mRNA relative to control group = 1.000; for TNF-α mRNA expression level (%): kidney, female NZB/WF1 mice, control = 100%, mean ± standard error of 10 to 11 mice
Protocol: as §1, §2, §3, §4, §5, §6

[7] = test system: IL-1β mRNA in the kidney; assay: IL-1β mRNA expression in the kidney of SLE model mice (Real-Time RT-PCR); type: in vivo, NZB/WF1 mice; settings: Drug A 30 mg/kg twice a day, Drug B 3 mg/kg once a day, oral, 10 weeks; for IL-1β Relative index: kidney mRNA relative to control group = 1.000; for IL-1β mRNA expression level (%): kidney, female NZB/WF1 mice, control = 100%, mean ± standard error of 10 to 11 mice
Protocol: as §1, §2, §3, §4, §5, §6

Row | SMILES | IFIT1 Relative index [1] | IFIT1 mRNA expression level (%) [1] [%] | IFN-γ Relative index [2] | IFN-γ mRNA expression level (%) [2] [%] | IP-10 Relative index [3] | IP-10 mRNA expression level (%) [3] [%] | action on the expression of SLE-associated genes in the kidney (in words) [4] | action on the expression of SLE-associated genes in the kidney (in words) ([4]; listed as 2-benzyl-5-(4-chlorophenyl)-6-[4-(methylthio)phenyl]-2H-pyridazine-3-one) | BAFF Relative index [5] | BAFF mRNA expression level (%) [5] [%] | TNF-α Relative index [6] | TNF-α mRNA expression level (%) [6] [%] | IL-1β Relative index [7] | IL-1β mRNA expression level (%) [7] [%]
1 | CSc1ccc(-c2nn(Cc3ccccc3)c(=O)cc2-c2ccc(Cl)cc2)cc1 [Drug A, 2-benzyl-5-(4-chlorophenyl)-6-[4-(methylthio)phenyl]-2H-pyridazine-3-one] | 0.721 | 72.1 ± 15.6 | 0.857 | 85.7 ± 27.1 | 0.883 | 88.3 ± 18.1 | exhibited no action on the expression of SLE-associated genes in the kidney of this model or exhibited only a tendency to slightly suppress the expression | there was not confirmed a significant action of suppressing the expression of SLE-associated genes in the kidney | 1.135 | 113.5 ± 13.7 | 0.634 | 63.4 ± 13.5 | 1.266 | 126.6 ± 50.3
2 | C[C@]12C=CC(=O)C=C1CC[C@@H]1[C@@H]2[C@@H](O)C[C@@]2(C)[C@H]1CC[C@]2(O)C(=O)CO [Drug B, prednisolone, reference compound] | 0.786 | 78.6 ± 15.0 | 0.360 | 36.0 ± 13.1 | 0.635 | 63.5 ± 9.9 | exhibited a tendency to suppress the expression of any gene | – | 0.722 | 72.2 ± 13.1 | 0.522 | 52.2 ± 13.2 | 0.661 | 66.1 ± 21.9

Reference: patent US20100120732A1, “AGENT FOR PREVENTION AND/OR TREATMENT OF SYSTEMIC LUPUS ERYTHEMATOSUS” (KOWA CO., LTD., priority 2007, published 2010)
